According to US20110071147A1, “4-AMINO-THIENO[3,2-C]PYRIDINE-7-CARBOXYLIC ACID AMIDES” (priority 2004, published 2011):
Counter-ions that a name gives are not always drawn.

Columns and labels:
[1] = biological target: T1, KDR (Homo sapiens, UniProt P35968); assay: KDR kinase HTRF assay; type: biochemical; conditions: recombinant EEE-tagged KDR, 0.3 mM ATP
T1 construct: EEE tag
Protocol: (§1) To determine inhibition of KDR and FGFR, kinase assays were conducted using an HTRF (Homogeneous Time Resolved Fluorescence) assay. This assay is described in A. J. Kolb et. al., Drug Discovery Today, 1998, 3(7), p 333.
Prior to kinase reaction, recombinant EEE-tagged KDR was activated in the presence of activation buffer (50 mM HEPES, pH 7.4, 1 mM DTT, 10% glycerol, 150 mM NaCl, 0.1 mM EDTA, 26 mM MgCl2, and 4 mM ATP). The enzyme was incubated at 4° C. for 1 hour.
Kinase activity assays were performed in 96-well polypropylene plates (Falcon) with a total volume of 90 μL in each well. Each well contained 1 μM KDR substrate (Biotin-EEEEYFELVAKKKK), 1 nM activated KDR, and a test compound with one of 8 assay concentrations ranging from 100 μM to […] (1:5 serial dilution). The kinase activity assay was done in the presence of 100 mM HEPES, pH 7.4, 1 mM DTT, 0.1 mM Na2VO4, 25 mM MgCl2, 50 mM NaCl (from KDR stock solution), 1% DMSO (from compound), 0.3 mM ATP (at Km concentration) and 0.02% BSA. The reaction was incubated at 37° C. for 30 minutes. To stop the KDR reaction, 72 μL of reaction mixture was transferred into a STOP plate containing 18 μL of revelation buffer (20 mM EDTA, 50 mM HEPES, pH 7.4, 0.02% BSA, 10 nM Eu-labelled anti-pY antibody (final conc. 2 nM), and 100 nM streptavidin (final conc. 20 nM)). After mixing, 35 μL of solution was transferred into duplicate wells of a 384-well black plate (Costar), and read at 615/665 nm on a Wallac Victor 5 reader.
(§2) Compound IC50 values were determined from duplicate sets of data, and calculated by using Excel and fitting data to equation Y=[(a−b)/{1+(X/c)^d]+b, where a and b are enzyme activity in the presence of no test inhibitor compound and an infinite amount of inhibitor test compound, respectively, c is the IC50 and d is the hill constant of the compound response. The IC50 value is the concentration of test compound that reduces by 50% the enzyme activity under the test conditions described.

[2] = tested on: VEGF-stimulated HUVEC; assay: VEGF-stimulated HUVEC proliferation assay (BrdU); type: cell-based; conditions: Homo sapiens, VEGF 20 ng per mL, BrdU ELISA, read-out: VEGF-HUVEC (IC50, BrdU labeling)
Protocol: (§3) The antiproliferative activity of test compounds of this invention in cell-based assays was evaluated by BrdU assay using the BrdU kit (Roche Biochemicals 1-647-229). Human umbilical vein endothelial cells (HUVEC, Clonetics CC-2519) were cultured in EGM-2 (Clonetics CC-3162) medium and seeded at 10000 cells per well in a volume of 200 μL of EGM-2 (Clonetics CC-3162) media in a 96-well flat bottom plates (Costar 3595) overnight. After 24 hours of growth at 37° C. with 5% CO2, the incubation media was removed slowly by aspiration and the content of each well was washed with 300 μL pre-warmed EBM-2 (Clonetics CC-3156) containing 50 μg per mL of gentamycin and 50 ng per mL of amphotercin-B (Clonetics CC-4083). […]
(§4) After 24 hour exposure to the test compounds, the cells were labeled with BrdU (Roche Biochemicals 1-647-229), by adding 20 μL per well of BrdU labeling reagent that has been diluted (1:100) in serum starvation medium. […] The plates were read at 450 nm with reference wavelength of 650 nm. The percent inhibition for each test compound was calculated by subtracting the absorbency of the blank (no cells) wells from all wells, then subtracting the division of the average absorbency of each test duplicate by the average of the controls from 1. […] The IC50 is determined from the linear regression of a plot of the logarithm of the concentration versus percent inhibition.

[3] = biological target: T2, FGFR; assay: FGFR kinase HTRF assay; type: biochemical; conditions: GST-tagged FGFR, 10 μM ATP
T2 construct: fused on or other part: GST tag
Protocol: as §1
FGFR activity assays were carried out as described above for the KDR activity assay with the following differences. GST-tagged FGFR enzyme was activated at room temperature for 1 hour in the following activation buffer: 100 mM HEPES, pH 7.4, 50 mM NaCl, 20 mM MgCl2, and 4 mM ATP. The kinase activity assay was performed with 1 μM substrate (Biotin-EEEEYFELV), 1.5 nM activated FGFR, and test compound in the presence of 100 mM HEPES, 1 mM DTT, 0.4 mM MgCl2, 0.4 mM MnCl2, 50 mM NaCl, 1% DMSO, 10 μM ATP (Km=8.5 μM for FGFR), 0.1 mM Na2VO4, and 0.02% BSA, in a total volume of 90 μL. The rest of the assay was performed in the same manner as KDR assay.
as §2

[4] = tested on: FGF-stimulated HUVEC; assay: FGF-stimulated HUVEC proliferation assay (BrdU); type: cell-based; conditions: Homo sapiens, FGF 5 ng per mL, BrdU ELISA, read-out: FGF-HUVEC (IC50, BrdU labeling)
Protocol: as §3, §4

T1 sequence (P35968 20-1356): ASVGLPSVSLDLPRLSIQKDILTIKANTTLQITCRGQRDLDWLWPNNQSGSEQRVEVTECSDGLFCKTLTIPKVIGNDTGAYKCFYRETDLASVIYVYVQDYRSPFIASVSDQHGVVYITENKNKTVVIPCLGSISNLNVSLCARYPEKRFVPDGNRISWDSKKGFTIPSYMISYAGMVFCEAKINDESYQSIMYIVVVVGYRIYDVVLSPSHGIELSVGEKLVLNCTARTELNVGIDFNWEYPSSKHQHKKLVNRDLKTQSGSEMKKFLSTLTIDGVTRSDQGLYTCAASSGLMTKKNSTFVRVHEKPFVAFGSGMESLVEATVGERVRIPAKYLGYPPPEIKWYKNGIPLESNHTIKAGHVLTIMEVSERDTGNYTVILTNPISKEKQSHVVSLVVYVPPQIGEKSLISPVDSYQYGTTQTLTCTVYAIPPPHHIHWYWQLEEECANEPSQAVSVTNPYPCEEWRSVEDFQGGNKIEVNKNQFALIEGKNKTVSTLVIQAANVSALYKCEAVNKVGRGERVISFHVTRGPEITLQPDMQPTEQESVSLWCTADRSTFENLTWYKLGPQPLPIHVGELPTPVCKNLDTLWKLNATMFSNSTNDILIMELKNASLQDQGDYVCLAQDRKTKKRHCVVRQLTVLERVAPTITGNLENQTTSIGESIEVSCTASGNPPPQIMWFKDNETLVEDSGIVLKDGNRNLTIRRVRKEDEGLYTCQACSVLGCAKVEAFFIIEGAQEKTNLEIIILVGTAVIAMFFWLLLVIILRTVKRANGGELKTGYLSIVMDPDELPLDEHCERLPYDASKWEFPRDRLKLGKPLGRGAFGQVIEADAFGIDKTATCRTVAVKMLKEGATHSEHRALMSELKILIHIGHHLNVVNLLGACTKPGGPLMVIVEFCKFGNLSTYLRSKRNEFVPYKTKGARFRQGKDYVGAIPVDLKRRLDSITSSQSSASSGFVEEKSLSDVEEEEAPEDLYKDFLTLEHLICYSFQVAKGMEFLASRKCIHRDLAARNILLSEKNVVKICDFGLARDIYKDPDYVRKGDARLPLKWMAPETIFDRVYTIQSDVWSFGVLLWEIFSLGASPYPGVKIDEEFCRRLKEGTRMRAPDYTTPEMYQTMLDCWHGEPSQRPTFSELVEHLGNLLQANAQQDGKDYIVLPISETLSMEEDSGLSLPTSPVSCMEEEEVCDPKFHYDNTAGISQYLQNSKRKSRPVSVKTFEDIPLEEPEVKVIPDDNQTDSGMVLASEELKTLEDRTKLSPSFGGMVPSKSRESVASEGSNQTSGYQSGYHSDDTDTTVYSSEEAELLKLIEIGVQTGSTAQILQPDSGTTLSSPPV

SMILES: COc1ccc(OCc2csc3c(C(=O)NCCO)cnc(N)c23)c(Cl)c1 [Example 2, 4-Amino-3-(2-chloro-4-methoxy-phenoxymethyl)-thieno[3,2-c]pyridine-7-carboxylic acid (2-hydroxy-ethyl)-amide]
- IC50 [1]: 509 nM

SMILES: Nc1ncc(C(=O)NCCO)c2scc(COc3ccc(Br)cc3)c12 [Example 4a, 4-Amino-3-(4-bromo-phenoxymethyl)-thieno[3,2-c]pyridine-7-carboxylic acid (2-hydroxy-ethyl)-amide]
- IC50 [2]: 264 nM
- IC50 [3]: 72.4 nM
- IC50 [1]: 20 nM
- IC50 [4]: 2760 nM

SMILES: Nc1ncc(C(=O)NCCN2CCOCC2)c2scc(COc3ccc(Br)cc3)c12 [Example 13b, 4-Amino-3-(4-bromo-phenoxymethyl)-thieno[3,2-c]pyridine-7-carboxylic acid (2-morpholin-4-yl-ethyl)-amide hydrochloride salt]
- IC50 [2]: 204 nM
- IC50 [3]: 180 nM
- IC50 [1]: 58.4 nM
- IC50 [4]: 627 nM
